Experiments:
Type in all cases: in vivo, Kunming mice
[1] = system: mice with ConA induced liver damage; test: ConA induced immunological liver damage model in mice; settings: for enzyme (ALT, AST) lowering effect compared to AD group: high dosage 0.88 mmol/kg vs AD 0.88 mmol/kg, P<0.05; for MDA content in liver homogenate vs model group / PGE2 content in liver homogenate vs model group / ability against liver lipid peroxidation compared with AD group: high dosage 0.88 mmol/kg; for MDA content in liver homogenate vs model group / PGE2 content in liver homogenate vs model group: P<0.01; for ability against liver lipid peroxidation compared with AD group: P<0.01 (B, C), P<0.05 (D); for protective effect against liver damage induced by ConA (summary): mice, intragastric, 3 days
Experimental: Kunming mice of clean grade (male, weight 20±2 g, supplied by the Laboratory Animal Center, Henan Province) are randomly divided into groups with 6 mice in each group. Bifendate (Xinchang Pharmaceutical Factory of Zhejiang Pharmaceutical Co., Ltd, 200 mg/kg) is used as positive control, andrographolide (AD) is provided by Furen Pharmaceutical Group Co., Ltd, and the test compounds are synthesized by the inventors with purities higher than 99.0%. Normal control group and model group are intragastrically given 0.5% sodium carboxymethylcellulose (CMC-Na), and test groups are given 0.5% CMC-Na suspensions with AD (0.88 mmol/kg), and low dosage (0.66 mmol/kg) and high dosage (0.88 mmol/kg) of compound A, B and C, respectively. The drugs are given for 3 days. One hour after the last administration, all mice except those in the normal control group are injected with a single dose of ConA (20 mg/kg) through the caudal vein. After 8 h, the eyeball is enucleated to collect blood, which is centrifuged at 3000 rpm for 15 min to separate serum. ALT and AST are tested according to the kit specification, respectively (Nanjing Jiancheng Bioengineering Institute). The left lobe of liver is taken to prepare 10% homogenate using physiological saline, MDA is determined according to the kit specification (Nanjing Jiancheng Bioengineering Institute). To 50 μL liver homogenate is added 2 mL of 0.5 mol/L KOH-methanol solution and kept at 50° C. water bath to isomerize for 20 minutes, then absorbance (A value) is measured at 278 nm, using the A value per mL of homogenate to represent the PGE2 content. Experimental data are expressed as average±standard deviation (X±s), analyzed with SPSS 11.5 statistic software, with P<0.05 meaning significant difference.
Kunming mice of clean grade (male, weight 20±2 g) are randomly divided into normal group, model group, bifendate (Zhejiang Wanbang Pharmaceutical Co., Ltd) positive control group (200 mg/kg), AD group (0.88 mmol/kg), low dosage group (0.66 mmol/kg) and high dosage (0.88 mmol/kg) group of compound D. ALT, AST, and MDA assay kits are purchased from Nanjing Jiancheng Bioengineering Institute. Other agents, drugs and experimental methods are the same as in EXAMPLE 1.
In experimental investigation of both models, the following grouping method is used: Kunming mice of clean grade (male, weight 20±2 g) are randomly divided into normal group, model group, bifendate group (200 mg/kg), AD group (0.88 mmol/kg), low dosage group (0.66 mmol/kg) and high dosage group (0.88 mmol/kg) of compound E, with 8 mice in each group. Other agents, drugs and experimental methods are the same as in EXAMPLE 1 and in EXAMPLE 4, respectively.

[2] = system: mice with ethanol induced liver damage; test: Ethanol induced liver damage model in mice
Experimental: Kunming mice of clean grade (male, weight 20±2 g), after adaptively fed for 3 days, are randomly divided into normal group, model group, bifendate positive control group (200 mg/kg), AD group (0.88 mmol/kg), low (0.44 mmol/kg), median (0.66 mmol/kg) and high (0.88 mmol/kg) dosage groups of compound A, and median (0.66 mmol/kg) and high (0.88 mmol/kg) dosage groups of compound B, with 8 mice in each group. Positive group and each test group are intragastrically given with respective suspension prepared with 0.5% CMC-Na, and normal group and model group are given with 0.5% CMC-Na. The drugs are given for 3 days, and 1 h after the last administration, all mice except those in the normal group are intragastrically administrated with a single dose of 50% EtOH ([…]). After 16 h, the eyeball of the mice in each group is enucleated to collect blood, which is centrifuged at 3000 rpm for 15 min to separate serum. ALT and AST activities are tested respectively (Nanjing Jiancheng Bioengineering Institute). The left lobe of liver is taken to prepare 10% homogenate using physiological saline, MDA (Nanjing Jiancheng Bioengineering Institute) content is determined. Experimental data are expressed as average±standard deviation (X±s), analyzed with SPSS 11.5 statistic software, with P<0.05 meaning there is a significant difference. Other agents, drugs and experimental methods are the same as in EXAMPLE 1.

[3] = system: mice with carbon tetrachloride induced liver damage; test: Carbon tetrachloride induced chemical liver damage model in mice; settings: for ALT activity in serum vs model group / AST activity in serum vs model group: dosage groups not distinguished (0.66 and 0.88 mmol/kg); for ALT activity in serum vs model group / AST activity in serum vs model group / MDA level in liver homogenate vs model group / PGE2 level in liver homogenate vs model group: P<0.01; for MDA level in liver homogenate vs model group / PGE2 level in liver homogenate vs model group: dosage groups not distinguished; for magnitude of decrease in ALT activity compared to AD group / magnitude of decrease in AST activity compared to AD group / PGE2 content compared to AD group / ability to reduce lipid peroxide level in liver homogenate compared to AD group: P<0.05; for protective effect against liver damage induced by carbon tetrachloride (summary): mice, intragastric, 3 days
Experimental: Kunming mice of clean grade (male, weight 20±2 g), after adaptively fed for 3 days, are randomly divided into normal group, model group, bifendate positive control group (200 mg/kg), AD group (0.88 mmol/kg), low dosage group (0.66 mmol/kg) and high dosage group (0.88 mmol/kg) of compound A, B, C and D, with 8 mice in each group. Positive group and each test group are intragastrically given with respective suspension prepared with 0.5% CMC-Na, and normal group and model group are given with 0.5% CMC-Na. The drugs are given for 3 days, and 1 h after the last administration, all mice except those in the normal group are intraperitoneally injected with a single dose of 0.3% carbon tetrachloride in peanut oil (0.1 mL/10 g). After 16 h, the eyeball of the mice in each group is enucleated to collect blood, which is centrifuged at 3000 rpm for 15 min to separate serum. ALT and AST activities are tested respectively (Nanjing Jiancheng Bioengineering Institute). The left lobe of liver is taken to prepare 10% homogenate using physiological saline, MDA (Nanjing Jiancheng Bioengineering Institute) and PGE2 contents are determined. Experimental data are expressed as average±standard deviation (X±s), analyzed with SPSS 11.5 statistic software, with P<0.05 meaning there is a significant difference. Other agents, drugs and experimental methods are the same as in EXAMPLE 1. In experimental investigation of both models, the following grouping method is used: Kunming mice of clean grade (male, weight 20±2 g) are randomly divided into normal group, model group, bifendate group (200 mg/kg), AD group (0.88 mmol/kg), low dosage group (0.66 mmol/kg) and high dosage group (0.88 mmol/kg) of compound E, with 8 mice in each group. Other agents, drugs and experimental methods are the same as in EXAMPLE 1 and in EXAMPLE 4, respectively.

[4] = dosage groups not distinguished, P<0.01
[5] = high dosage 0.88 mmol/kg vs AD 0.88 mmol/kg
[6] = low dosage 0.66 mmol/kg vs AD 0.88 mmol/kg

SMILES | enzyme (ALT, AST) lowering effect compared to AD group [1] | MDA content in liver homogenate vs model group [1] | PGE2 content in liver homogenate vs model group [1] | ability against liver lipid peroxidation compared with AD group [1] | protective effect against liver damage induced by ConA (summary) [1] | ALT activity in serum vs model group [3] | AST activity in serum vs model group [3] | MDA level in liver homogenate vs model group [3] | PGE2 level in liver homogenate vs model group [3] | magnitude of decrease in ALT activity compared to AD group [3, 5] | magnitude of decrease in AST activity compared to AD group [3, 5] | magnitude of decrease in ALT activity compared to AD group [3, 6] | magnitude of decrease in AST activity compared to AD group [3, 6] | protective effect against liver damage induced by carbon tetrachloride (summary) [3] | further results
C=C1CCC2C(C)(CO)C(O)CCC2(C)C1C=CC1=CC(=Cc2ccccc2)OC1=O (stereo not shown) [B] | better enzyme lowering effect | more obvious effect | notably reduce PGE2 content | stronger resistant ability against liver lipid peroxidation | notably protective effect | notably suppress the increase | notably suppress the increase | effectively reduce | effectively reduce | significantly better | significantly better | significantly better | significantly better | protective effect | ALT activity in serum vs model group [2, 4]: effectively suppress; AST activity in serum vs model group [2, 4]: effectively suppress; MDA content in liver homogenate vs model group [2, 4]: effectively reduce the MDA content; ALT activity decreasing magnitude compared with AD group ([2]; high dosage 0.88 mmol/kg, P<0.01 (A), P<0.05 (B)): notably larger; protective effect against liver damage induced by ethanol (summary) ([2]; mice, intragastric, 3 days): protective effect; PGE2 content compared to AD group ([3]; low dosage 0.66 mmol/kg): notably lower; ability to reduce lipid peroxide level in liver homogenate compared to AD group ([3]; low dosage 0.66 mmol/kg): stronger ability to reduce the lipid peroxide level
C=C1CCC2C(C)(CO)C(O)CCC2(C)C1C=CC1=CC(=Cc2cccc(Br)c2)OC1=O (stereo not shown) [C] | better enzyme lowering effect | more obvious effect | notably reduce PGE2 content | stronger resistant ability against liver lipid peroxidation | notably protective effect | notably suppress the increase | notably suppress the increase | effectively reduce | effectively reduce | significantly better | significantly better | significantly better | significantly better | protective effect | PGE2 content compared to AD group ([3]; high dosage 0.88 mmol/kg): notably lower; ability to reduce lipid peroxide level in liver homogenate compared to AD group ([3]; high dosage 0.88 mmol/kg): stronger ability to reduce the lipid peroxide level

— US9636324B2, “Use of 15-benzylidence-14-deoxy-11, 12 -dehyroandrographolide derivative in manufacture of medicaments for protecting liver and anti-hepatitis C virus” (Zhengzhou University, priority 2012, dated 2017)
